One assay addresses T1, Kv 1.3 (Rattus norvegicus, UniProt P15384).
T1 construct: from tissue; host or cells: rat brain synaptic plasma membrane vesicles
Nature of the assay: [125I]ChTX binding to rat brain synaptic plasma membrane vesicles. To be noted: low ionic strength (50 mM NaCl, 20 mM Tris-HCl, pH 7.4). Here is the method: (§1) The potency of MgTX as an inhibitor of [^125 I]ChTX binding to Kv 1.3 was evaluated. The binding of [^125 I]ChTX to either rat brain synaptic plasma membrane vesicles (Kv 1.3 channel; Vazquez et al., J. Biol. Chem. 265, 15564, 1990) or bovine aortic smooth muscle sarcolemmal membranes (Maxi-K channel; Vazquez et al., J. Biol. Chem. 264, 20402, 1989) was determined as described. Briefly, membrane vesicles were incubated with [^125 I]ChTX in the presence or absence of other added agents, until equilibrium was achieved. Separation of bound from free ligand was accomplished by filtration through GF/C glass fiber filters (WHATMAN) that had been presoaked in 0.5% polyethyleneimine. Nonspecific binding was determined in the presence of 10 nM unlabeled ChTX. Data from saturation experiments were analyzed in a Scatchard representation to determine Kd and Bmax values. Triplicate samples were obtained for each experimental point and the data were averaged. The standard deviation of the mean was typically less than 2%. […] As an indication of selectivity, MgTX had no effect on [^125 I]ChTX binding to the Maxi-K channel in smooth muscle membranes at concentrations up to 10 nM.

For the next assay, the target named is T2, Maxi-K channel (Bos taurus, UniProt Q28204).
T2 construct: from tissue; host or cells: bovine aortic smooth muscle sarcolemmal membranes
T2 sequence (Q28204 whole entry): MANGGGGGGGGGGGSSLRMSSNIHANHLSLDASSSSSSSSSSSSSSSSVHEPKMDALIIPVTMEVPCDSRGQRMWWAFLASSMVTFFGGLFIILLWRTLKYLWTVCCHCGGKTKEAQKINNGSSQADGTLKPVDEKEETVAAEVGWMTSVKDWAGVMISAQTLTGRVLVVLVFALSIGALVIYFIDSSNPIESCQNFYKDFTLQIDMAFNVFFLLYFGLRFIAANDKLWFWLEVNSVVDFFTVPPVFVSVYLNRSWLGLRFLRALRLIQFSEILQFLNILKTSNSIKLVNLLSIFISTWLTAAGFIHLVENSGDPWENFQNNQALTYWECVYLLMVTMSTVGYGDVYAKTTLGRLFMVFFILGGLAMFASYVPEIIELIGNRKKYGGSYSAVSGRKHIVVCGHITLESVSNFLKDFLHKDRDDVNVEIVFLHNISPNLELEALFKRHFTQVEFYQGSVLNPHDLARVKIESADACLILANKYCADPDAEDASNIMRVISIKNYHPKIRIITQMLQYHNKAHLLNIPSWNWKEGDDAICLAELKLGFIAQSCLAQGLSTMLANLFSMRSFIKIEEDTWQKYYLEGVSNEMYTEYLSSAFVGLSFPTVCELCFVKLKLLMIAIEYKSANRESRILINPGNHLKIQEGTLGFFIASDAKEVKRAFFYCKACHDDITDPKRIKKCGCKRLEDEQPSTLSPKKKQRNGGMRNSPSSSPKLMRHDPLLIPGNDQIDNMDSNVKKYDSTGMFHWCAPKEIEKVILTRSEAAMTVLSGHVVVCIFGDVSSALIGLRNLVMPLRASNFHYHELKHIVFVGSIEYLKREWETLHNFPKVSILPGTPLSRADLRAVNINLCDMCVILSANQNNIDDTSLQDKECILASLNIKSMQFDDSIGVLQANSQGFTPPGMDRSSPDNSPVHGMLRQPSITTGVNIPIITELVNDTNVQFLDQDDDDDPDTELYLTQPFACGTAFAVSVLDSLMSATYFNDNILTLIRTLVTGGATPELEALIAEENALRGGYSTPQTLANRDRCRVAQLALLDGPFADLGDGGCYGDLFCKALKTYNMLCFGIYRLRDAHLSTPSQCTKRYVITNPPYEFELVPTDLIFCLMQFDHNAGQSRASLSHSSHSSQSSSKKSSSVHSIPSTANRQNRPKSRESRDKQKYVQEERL
T2 sequence (Q28067 whole entry partner): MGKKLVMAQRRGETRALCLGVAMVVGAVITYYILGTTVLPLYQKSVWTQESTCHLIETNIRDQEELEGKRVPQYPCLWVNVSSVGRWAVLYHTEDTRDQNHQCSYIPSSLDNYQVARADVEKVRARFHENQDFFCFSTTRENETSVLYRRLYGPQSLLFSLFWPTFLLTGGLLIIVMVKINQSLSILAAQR
Nature of the assay: [125I]ChTX binding to bovine aortic smooth muscle sarcolemmal membranes. The following applies: concentrations up to 10 nM. On the procedure: as §1

The target in assay [1] is T3, Kv 1.3 in plasma membranes from Jurkat cells (Homo sapiens, UniProt P22001).
T3 construct: plasma membranes prepared from Jurkat cells, a human T-cell leukemia line; endogenous in cells; host or cells: Jurkat cells (plasma membranes)
T3 sequence (P22001 whole entry): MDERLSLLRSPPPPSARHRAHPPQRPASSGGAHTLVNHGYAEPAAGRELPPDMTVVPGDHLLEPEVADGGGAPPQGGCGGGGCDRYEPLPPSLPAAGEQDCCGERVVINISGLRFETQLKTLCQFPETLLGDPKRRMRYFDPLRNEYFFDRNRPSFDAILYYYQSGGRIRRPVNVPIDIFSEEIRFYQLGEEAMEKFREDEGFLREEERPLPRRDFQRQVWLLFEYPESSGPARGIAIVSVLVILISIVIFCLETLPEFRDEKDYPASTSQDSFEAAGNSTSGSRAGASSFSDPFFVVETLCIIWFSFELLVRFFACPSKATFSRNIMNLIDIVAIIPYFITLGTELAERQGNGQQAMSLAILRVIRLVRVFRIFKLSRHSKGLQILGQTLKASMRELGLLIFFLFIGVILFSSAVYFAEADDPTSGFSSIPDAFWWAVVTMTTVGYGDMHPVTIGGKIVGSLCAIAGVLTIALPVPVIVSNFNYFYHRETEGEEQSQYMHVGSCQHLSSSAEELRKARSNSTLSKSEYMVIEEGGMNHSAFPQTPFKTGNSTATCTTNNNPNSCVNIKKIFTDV
Kind of assay: [125I]ChTX binding to plasma membranes from Jurkat cells. Here is the method: In addition to being tested for competition for [^125 I]ChTX binding to rat brain and bovine aortic smooth muscle, MgTX was evaluated for its effects on [^125 I]ChTX binding to human T lymphocytes and to plasma membranes prepared from Jurkat cells, a human T-cell leukemia line. MgTX competition for [^125 I]ChTX binding to human T cells was performed as described by Lin, et al., J. Exp. Med. 177, 637-645, 1993. Binding experiments using monocyte-depleted, E-rosetted human T cells were carried out in isotonic sucrose with 5 mM KCl, 5 mM NaCl, 6 mM glucose and 10 mM HEPES, pH 8.0 until equilibrium was achieved. The procedure for binding to plasma membranes from Jurkat Cells is similar except that the binding solution was 3 mM KCl, 7 mM NaCl, 10 mM HEPES, pH 8.0. Free ligand was removed from bound by filtration through Whatman GF/C glass fiber filters (pretreated with 0.5% polyethylenimine). […] Hill coefficients were 2 in both cases.

Another assay addresses T4, Shaker-H4 (Drosophila melanogaster, UniProt P08510).
T4 construct: expressed in transfected cells; host or cells: Xenopus oocytes injected with RNA transcribed in vitro from the cDNA clone
Kind of assay: Two-electrode voltage clamp of Xenopus oocytes expressing Shaker-H4. Type of assay: cell-based. On the procedure: Ionic currents were also recorded from Xenopus oocytes that had been injected with RNA transcribed in vitro from one or another of the following K^+ channel cDNA clones. Kv 1 (rat Kv 1.5), rat or human Kv 3 (rat Kv 1.3; human Kv 1.3), Kv 4 (rat Kv 3.1 ), rat ISK, Kv 2 (rat Kv 1.6) or Drosophila Shaker-H4. The names of the clones are listed as originally published, with the appropriate parenthetical designation according to the unified gene nomenclature proposed by Chandy. Shaker-H4 is a splice variant from the original Drosophila Shaker K^+ channel gene. Kv 1.3 is the ChTX-sensitive delayed rectifier current found in rat and human T lymphocytes (data from rat and human clones were indistinguishable and were combined) and it is a member of the Shaker family. Kv 1.5 is a channel cloned from rat (Swanson et al., Neuron, 4, 929, 1990) and is another member of the Shaker family. The Kv 1.5 transcript has been detected in pancreatic β cells as described in Philipson, et al., Proc. Natl. Acad. Sci. U.S.A. 88, 53, 1991. […] The ISK transcript has been detected in lymphocytes (Attali et al., J. Biol. Chem,. 267, 8650, 1992), but no evidence of the IKs current has been found in those cells.
Methods for oocyte isolation and micro-injection were previously described in Goldin, Meth. […] Currents expressed in oocytes were measured using a DAGAN model CA-1 two-electrode voltage clamp. […]

The results in this text go back to patent US5494895A, “Scorpion peptide margatoxin with immunosuppressant activity” (Merck & Co., Inc., priority 1993, dated 1996).

Structures are written as SMILES. Peptide text beside a SMILES is read from it.

As a reminder, the IC50 is the midpoint of a concentration-inhibition curve. As usually defined, the Hill coefficient is a measure of the steepness of the concentration-response curve.

T1 sequence (P15384 whole entry): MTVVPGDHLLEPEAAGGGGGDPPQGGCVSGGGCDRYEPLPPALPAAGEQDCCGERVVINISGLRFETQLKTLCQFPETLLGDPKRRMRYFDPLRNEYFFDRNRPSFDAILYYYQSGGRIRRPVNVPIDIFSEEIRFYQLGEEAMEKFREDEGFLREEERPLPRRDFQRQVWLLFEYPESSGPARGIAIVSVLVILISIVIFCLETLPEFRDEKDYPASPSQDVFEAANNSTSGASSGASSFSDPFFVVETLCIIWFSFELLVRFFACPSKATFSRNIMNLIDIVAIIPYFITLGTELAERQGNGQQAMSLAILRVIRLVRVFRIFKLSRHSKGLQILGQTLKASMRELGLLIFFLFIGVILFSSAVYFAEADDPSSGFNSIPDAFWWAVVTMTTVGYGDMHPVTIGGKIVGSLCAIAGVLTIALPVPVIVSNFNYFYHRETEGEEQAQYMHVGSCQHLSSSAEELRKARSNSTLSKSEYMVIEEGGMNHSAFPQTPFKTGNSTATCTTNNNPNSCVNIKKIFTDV
T4 sequence (P08510 whole entry): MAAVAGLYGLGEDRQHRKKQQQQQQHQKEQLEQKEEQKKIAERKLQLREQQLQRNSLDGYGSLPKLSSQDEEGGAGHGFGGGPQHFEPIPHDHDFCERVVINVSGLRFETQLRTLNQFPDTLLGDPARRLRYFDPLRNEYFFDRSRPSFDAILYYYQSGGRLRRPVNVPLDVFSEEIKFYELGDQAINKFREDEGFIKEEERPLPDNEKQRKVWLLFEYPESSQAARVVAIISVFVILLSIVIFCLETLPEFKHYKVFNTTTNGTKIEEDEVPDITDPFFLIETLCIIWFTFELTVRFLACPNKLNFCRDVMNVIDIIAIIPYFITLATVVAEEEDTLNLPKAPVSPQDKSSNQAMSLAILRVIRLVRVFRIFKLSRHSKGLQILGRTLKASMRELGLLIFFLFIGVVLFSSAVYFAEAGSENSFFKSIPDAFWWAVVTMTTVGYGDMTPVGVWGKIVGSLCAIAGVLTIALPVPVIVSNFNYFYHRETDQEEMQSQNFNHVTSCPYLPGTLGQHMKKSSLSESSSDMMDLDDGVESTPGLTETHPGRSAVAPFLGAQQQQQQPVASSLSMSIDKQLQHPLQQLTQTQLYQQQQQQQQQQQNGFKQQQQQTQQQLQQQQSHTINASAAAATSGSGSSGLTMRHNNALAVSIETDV

In the case of `CC[C@H](C)[C@H](NC(=O)[C@@H](N)[C@@H](C)O)C(=O)N[C@H](C(=O)N[C@@H](CC(N)=O)C(=O)N[C@H](C(=O)N[C@@H](CCCCN)C(=O)N[C@H]1CSSC[C@@H]2NC(=O)[C@H](CCCCN)NC(=O)[C@H](C)NC(=O)CNC(=O)[C@H](C)NC(=O)[C@H](CO)NC(=O)[C@H](CCC(N)=O)NC(=O)CNC(=O)[C@H](Cc3ccccc3)NC(=O)[C@H](CCC(N)=O)NC(=O)[C@H](C)NC(=O)[C@H](CCCCN)NC(=O)[C@@H]3CSSC[C@@H](C(=O)N[C@@H](Cc4ccc(O)cc4)C(=O)N4CCC[C@H]4C(=O)N[C@@H](Cc4c[nH]cn4)C(=O)O)NC(=O)[C@H](CCCCN)NC(=O)[C@H](CSSC[C@H](NC(=O)[C@H](CCC(N)=O)NC(=O)[C@H](CCCCN)NC(=O)[C@@H]4CCCN4C(=O)[C@H](CO)NC(=O)[C@H]([C@@H](C)O)NC1=O)C(=O)N[C@@H](CC(C)C)C(=O)N1CCC[C@H]1C(=O)N1CCC[C@H]1C(=O)N3)NC(=O)[C@H](CCCCN)NC(=O)CNC(=O)[C@H](CC(N)=O)NC(=O)[C@H](CCSC)NC2=O)C(C)C)[C@@H](C)CC` [MgTX, Margatoxin] (HELM PEPTIDE1{T.I.I.N.V.K.C.T.S.P.K.Q.C.L.P.P.C.K.A.Q.F.G.Q.S.A.G.A.K.C.M.N.G.K.C.K.C.Y.P.H}$PEPTIDE1,PEPTIDE1,7:R3-29:R3|PEPTIDE1,PEPTIDE1,13:R3-34:R3|PEPTIDE1,PEPTIDE1,17:R3-36:R3$$$V2.0; N-terminus and C-terminus assumed; bridges inferred), the “Hill coefficient of inhibition of [125I]ChTX binding to brain membranes” value at Kv 1.3 amounted to 1.7. For the same compound, the IC50 at Kv 1.3 (read-out: IC50 for inhibition of [125I]ChTX binding to brain membranes) came to 0.036 nM; in assay [1] (pH 8.0, read-out: IC50 for inhibition of [125I]ChTX binding), 0.0027 nM; against Shaker-H4, 100 nM. On Maxi-K channel, the “effect on [125I]ChTX binding to the Maxi-K channel in smooth muscle membranes” value is reported as “no effect”. The compound further registered a Hill coefficient in assay [1] of 2.
